Measured values reported in patent US11576914B2, “Drug for treating or preventing disorder caused by TGF-β signaling, and application thereof” (THE DOSHISHA, priority 2017, dated 2023).
Entries after “also recorded” stand apart in the source; their conditions may differ.

Key:
[1] = test system: corneal endothelium; assay: Histological analysis of the corneal endothelium after instillation; type: in vivo; conditions: 10 μM into the anterior chamber, after 24 hours, positive control
From the text: Rabbits were euthanized, and then their eyes were removed and histologically analyzed. Expression of markers related to corneal endothelial functions was confirmed by immunostaining. The sclerocornea fragments were fixed with 0.5% paraformaldehyde and then blocked with 1% bovine serum albumin. As primary antibodies, ZO-1 antibody (Life Technologies) and N-cadherin antibody (BD Biosciences), which are indicators of the barrier function of corneal endothelial cells, and Na^+/K^+-ATPase antibody (MILLIPORE), which is an indicator of pump functions, were added, followed by standing at 4° C. overnight. […] Further, nuclear staining was performed using DAPI (Dojindo). To observe the cell morphology, actin was stained using Phalloidin (Life Technologies). The stained sclerocornea fragments were mounted in slide glasses and observed using a confocal fluorescence microscope (TCS SPE, Leica).
In addition, rabbits were euthanized, and then their eyes were removed. To assess cell death, the sclerocornea fragments were stained with Annexin V (Zymed Laboratories) and PI (Zymed Laboratories), fixed with 0.5% paraformaldehyde, and nuclear stained with DAPI (Dojindo). The stained sclerocornea fragments were mounted in slide glass and observed using a confocal fluorescence microscope (TCS SPE, Leica). Staurosporine (10 μM, Merck Millipore) was administered into the anterior chamber of a rabbit eyeball, and after 24 hours, it was used as a positive control.

[2] = test system: Fuchs' endothelial corneal dystrophy patient-derived immortalized corneal endothelial cells; assay: Cell damage inhibitory effect on iFECD stimulated with TGF-β2 (phase contrast microscope); type: cell-based, human; conditions: for disorder in the corneal endothelial cells: 1 μM and 3 μM, iFECD, pretreatment, TGF-β2 stimulation; for cell damage inhibitory effect for the corneal endothelial cells: at sub-μM
Description: The medium was removed from the culture dish in which Fuchs' endothelial corneal dystrophy patient-derived immortalized corneal endothelial cells (hereinafter, referred to as disease model cells) were being cultured, and the cells were supplemented with 1×PBS (−) that was preheated to 37° C., and were washed. This operation was repeated twice. The cells were supplemented with 1×PBS (−) again and incubated for 5 minutes at 37° C. (5% CO2). After the PBS (−) was removed, the cells were supplemented with 0.05% Trypsin-EDTA (nacalai tesque, 32778-34) and incubated for 5 minutes at 37° C. (5% CO2). The cells were then suspended in a medium, and collected by centrifugation at 1500 rpm for 3 minutes. DMEM (nacalai tesque, 08456-36)+10% FBS (Biowest, S1820-500)+1% P/S (nacalai tesque, 26252-94) was used as the medium. The disease model cells were seeded in a 6-well plate at a rate of 1.5×10^5 cells per well and cultured at 37° C. (5% CO2) for 48 hours. DMEM+10% FBS+1% P/S was used as the medium.
After 48 hours, the medium was removed, and AKP-001, SB203580 (Cayman, 13067), PH-797804 (Selleck Chemicals, S2726) and VX-702 (Selleck Chemicals, 56005) were added to DMEM+2% FBS+1% P/S so that the final concentration was 0.01, 0.03, 0.1, 0.3, 1, 3, 10 and 30 μM, followed by culturing as 24-hour pretreatment. After 24 hours, the medium was removed, and AKP-001, 5B203580 (Cayman, 13067), PH-797804 (Selleck Chemicals, S2726), or VX-702 (Selleck Chemicals, S6005), together with 100 ng/ml Recombinant Human TGF-β2 (R&D systems, RND302-B2-002), were added to DMEM+2% FBS+1% P/S so that the final concentration was 0.01 μM, 0.03 μM, 0.1 μM, 0.3 μM, 1 μM, 3 μM, 10 μM, and 30 μM, followed by culturing for 24 hours. After 24 hours, cell damage was evaluated by observation with a phase contrast microscope. As a control, immortalized corneal endothelial cells that were not stimulated with TGF-β were used.

[3] = test system: cleaved caspase-3 and PARP; assay: Western blot of caspase 3 and PARP in iFECD stimulated with TGF-β2; type: cell-based, human; conditions: 0.1 μM; for cleaved caspase-3 and PARP expression: 100 ng/ml TGF-β2, 24 hours; for caspase activity: TGF-β2
Description: The medium was removed from the culture dish of cultured disease model cells, and the disease model cells were supplemented with 1×PBS (−) that was preheated to 37° C., followed by washing. This operation was repeated twice. The cells were supplemented with 1×PBS (−) again and incubated for 5 minutes at 37° C. (5% CO2). After the PBS (−) was removed, the cells were supplemented with 0.05% Trypsin-EDTA (nacalai tesque, 32778-34) and incubated for 5 minutes at 37° C. (5% CO2). The cells were then suspended in a medium, and collected by centrifugation at 1500 rpm for 3 minutes. Medium: DMEM (nacalai tesque, 08456-36)+10% FBS (Biowest, S1820-500)+1% P/S (nacalai tesque, 26252-94).
The Fuchs' endothelial corneal dystrophy patient-derived immortalized corneal endothelial cells were seeded in a 6-well plate at a rate of 1.5×10^5 cells per well and cultured at 37° C. (5% CO2) for 48 hours. DMEM+10% FBS+1% P/S was used as the medium. After 48 hours, the medium was removed, and SB203580 (Cayman, 13067), PH-797804 (Selleck Chemicals, S2726), VX-702 (Selleck Chemicals, 56005) and AKP-001 were added to DMEM+2% FBS+1% P/S so that all the final concentration was 0.1 μM, followed by culturing as 24-hour pretreatment.
After 24 hours, the medium was removed, and SB203580 (Cayman, 13067), PH-797804 (Selleck Chemicals, S2726), VX-702 (Selleck Chemicals, 56005) and AKP-001, together with 100 ng/ml recombinant human TGF-β2 (R & D systems, RND302-B2-002), were added to DMEM+2% FBS+1% P/S so that all the final concentration was 0.1 μM, followed by culturing for 24 hours. After 24 hours, the protein was subjected to Western blotting according to the following procedure to evaluate the effect on apoptosis.
The medium was collected on ice to collect free and dead cells as well. The solution obtained from washing the cells twice with 1×PBS (−) was also collected, followed by centrifugation of 800 g at 4° C. for 5 minutes. The supernatant was discarded to obtain precipitates. The washed cells were supplemented with a protein extraction buffer (RIPA; 50 mM Tris-HCl (pH 7.4), 150 mM NaCl, 1 mM EDTA, 0.1% SDS, 0.5% DOC, 1% NP-40) on ice to extract proteins. The precipitates from centrifuging the free and dead cells were also subsequently suspended together for extraction. The collected solution was pulverized three times for 30 seconds in cold water with a sonication device (BIORUPTOR, TOSHO DENKI) and centrifuged for 10 min at 4° C. at 15000 rpm to collect the supernatant of proteins.
Eight μg of the extracted protein was separated by SDS-PAGE and transferred onto a nitrocellulose membrane. A rabbit anti-Caspase 3 antibody (Cell Signaling, 9662), rabbit anti-PARP antibody (Cell Signaling, 9542), and mouse anti-GAPDH antibody (MBL, M171-3) were used as the primary antibodies. A peroxidase-labeled anti-rabbit antibody and anti-mouse antibody (GE Healthcare Biosciences, NA931V, NA934V) were used as the secondary antibodies. For the primary antibodies, the rabbit anti-PARP antibody was diluted 1000-fold, the rabbit anti-Caspase 3 antibody was diluted 1000-fold, and the mouse anti-GAPDH antibody was diluted 3000-fold. Further, the secondary antibody was diluted 5000-fold. Chemi Lumi ONE Ultra (Nacalai Tesque, 11644-40) was used for detection. The detected band strength was analyzed with a lumino image analyzer LAS-4000 mini (Fuji Film) and ImageQuant™ software (GE Healthcare).

Structure (SMILES): CN[C@@H]1C[C@H]2O[C@@](C)([C@@H]1OC)n1c3ccccc3c3c4c(c5c6ccccc6n2c5c31)C(=O)NC4 [staurosporine, reference compound]
- Annexin V and PI staining (cell death) [1]: Staining with Annexin V or PI was observed

Structure (SMILES): CNC(=O)c1ccc(C)c(-n2c(C)cc(OCc3ccc(F)cc3F)c(Br)c2=O)c1 [PH-797804]
- disorder in the corneal endothelial cells [2]: effectively suppressed
- cell damage inhibitory effect for the corneal endothelial cells [2]: not observed; also recorded: No inhibitory effects
- cleaved caspase-3 and PARP expression [3]: confirmed similarly
- caspase activity [3]: not inhibited

Structure (SMILES): NC(=O)c1ccc(N(C(N)=O)c2c(F)cccc2F)nc1-c1ccc(F)cc1F [VX-702]
- disorder in the corneal endothelial cells [2]: effectively suppressed
- cell damage inhibitory effect for the corneal endothelial cells [2]: not observed; also recorded: No inhibitory effects
- cleaved caspase-3 and PARP expression [3]: confirmed similarly
- caspase activity [3]: not inhibited
